Tests used:
human IRAK-4 = target: T1, human IRAK-4 (Homo sapiens, UniProt Q9NWZ3); assay: Phosphorylation IC50 determination for human IRAK-4 (ADP-Glo kinase assay); format: biochemical; conditions: RIP140 substrate, Km ATP, read-out: IRAK4 IC50
T1 construct: purchased Carna Biosciences 09 145
T1 sequence (Q9NWZ3 1-460): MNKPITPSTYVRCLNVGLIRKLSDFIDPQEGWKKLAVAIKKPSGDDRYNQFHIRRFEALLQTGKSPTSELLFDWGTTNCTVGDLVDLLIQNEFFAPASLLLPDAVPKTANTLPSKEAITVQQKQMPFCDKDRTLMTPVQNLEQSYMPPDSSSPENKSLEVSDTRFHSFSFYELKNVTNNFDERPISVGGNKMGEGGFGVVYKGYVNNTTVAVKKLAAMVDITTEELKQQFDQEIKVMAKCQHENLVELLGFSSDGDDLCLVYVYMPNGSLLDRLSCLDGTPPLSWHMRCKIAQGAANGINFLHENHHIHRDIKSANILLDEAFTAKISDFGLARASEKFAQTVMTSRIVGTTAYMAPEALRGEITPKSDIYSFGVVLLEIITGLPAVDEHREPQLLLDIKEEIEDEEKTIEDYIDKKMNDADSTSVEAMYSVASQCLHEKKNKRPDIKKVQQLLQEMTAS
Experimental: 3.1. Phosphorylation IC50 Determination for Human IRAK-4
The phosphorylation of the substrate RIP140 (SEQ IDi1) by IRAK4 at Km ATP was detected with the ADP-Glo Kinase Assay (Promega, Cat #V9103), a luminescent kinase assay which measures the ADP formed from a kinase reaction. (Zegzouti et al., 2009) In a second step the kinase reaction is terminated and all the remaining ATP was depleted. In a final step the ADP was converted into ATP and this newly synthesized ATP was measured by using a luciferase/luciferin reaction with a luminescent reader. The luminescent signal positively correlated with kinase activity, in particular kinase inhibition giving a decrease of the luminescent signal.
For the semi-automated assay, the positive control (100% inhibition) was prepared by diluting 10 mM staurosporine stock mixture (20 μL) in water (3.8 mL) and DMSO (180 μL), thus resulting in a […] staurosporine solution at 1% DMSO (final concentration after further dilution in the kinase reaction).
For the automated assay, no pre-dilution of the 10 mM staurosporine stock was made. 10 mM staurosporine was spotted directly in the assay plate using acoustic dispensing and complemented with DMSO to result in a similar final concentration as mentioned above.
For the semi-automated assay, the negative control (0% inhibition) was prepared by mixing water (3.8 mL) and DMSO (200 μL) resulting in a final concentration of 1% DMSO after further dilution in the kinase reaction. For the automated assay no pre-dilution of DMSO was done. 100% DMSO was spotted directly on the assay plate.
The assay buffer solution was prepared at a concentration corresponding to 5 fold the final (most diluted) assay concentration by mixing a solution of 125 mM TRIS pH 7.5+0.05% Triton X-100+2.5 mM EGTA (5.27 mL) with 1M MgCl2 (72 μL), 1M DTT (57.6 μL), and 200 mM MnCl2 (360 μL).
For example, for the semi-automated method, the enzyme-substrate mixture was prepared by mixing water (3999 μL), assay buffer solution (1380 μL), 1 mM RIP140 (138 μL—SEQ ID1), and 200 ng/mL IRAK 4 (3.45 μL Carna Biosciences, 09 145).
For semi-automated method, the ATP mixture was prepared at a concentration corresponding to 2.5 fold the final (most diluted) assay concentration of the semi-automated method and 1.5 fold the final (most diluted) assay concentration of the automated method. For example, for the semi-automated method, the ATP mixture was prepared by mixing water (4126 μL), assay buffer solution (1380 μL), and 10 mM ATP (13.80 μL).
The assay was performed either in a semi-automated or fully automated manner. The assay volume and the incubation time of the ADP detection were different accordingly the method used.
3.1.3.1. Semi-Automated Assay
The compounds were prepared as a serial dilution of 10 point dose responses with 1/5 dilution steps in 100% DMSO starting from 2 mM highest concentration, diluted 1/20 in water. 1 μL was transferred dry to the assay plates.
On each assay plate 32 wells of each control (positive & negative) were added, followed by 2 μL enzyme-substrate mixture.
The reaction was started by adding 2 μL diluted ATP (final concentration Km ATP) on the assay plates. Plates were centrifuged for a few seconds at 1000 rpm followed by an incubation at r.t. for 120 min.
The reactions were stopped and the unconsumed ATP was depleted by adding 5 μL ADP-glo Reagent (Promega, Cat #V9103) to the reaction. The plates were quickly centrifuged at 1000 rpm and incubated at r.t. for 40 min corresponding to full ATP depletion.
The ADP was converted back to ATP and luciferase and luciferin were introduced to detect ATP by adding 10 μL kinase detection reagent (Promega, Cat #V9103) to the reaction. The plates were centrifuged for a few seconds at 1000 rpm and incubated at r.t. for a further 30 min.
Luminescent read out was performed on an Envision luminescent reader (Perkin Elmer). […]

Human Hepatocyte = assay: Metabolic stability in hepatocytes (human); format: in vitro ADME; conditions: 1 μM test compound, cryopreserved human hepatocytes
Experimental: 4.6. Metabolic Stability in Hepatocytes
The aim of this assay is to determine the metabolic stability of the compound in hepatocytes (cryopreserved) of different species. Low hepatocyte stability may result in the formation of unwanted metabolites, high clearance, and therefore is not desirable.
The decrease in parent was assessed by measuring the percentage remaining by LC-MS/MS analysis.
A 10 mM stock solution of test compound in DMSO was first diluted in DMSO to 3 mM, and then in modified Krebs-Henseleit buffer (Sigma, K3753) to 5 μM. This compound dilution was added to a suspension of pooled cryopreserved hepatocytes (BioreclamationIVT) at 37° C. under gentle shaking.
Final reaction conditions were: 1 μM of test compound, 0.03% DMSO, 0.5 million viable hepatocytes/mL, and 75 μL incubation volume.
Testosterone (1 μM) and 7-hydroxycoumarin (1 μM) were used, respectively as phase I and phase II metabolic reaction controls.
After 0, 10, 20, 45, 90, 120 and 180 min of incubation, the reaction was terminated with 225 μL of MeCN:MeOH (2:1) containing 100 ng/mL of diclofenac as analytical internal standard. Samples were mixed, centrifuged and the supernatant analyzed by LC-MS/MS.
The instrument responses (ratios of test compound and internal standard peak areas) were referenced to the zero time point samples (considered as 100%) in order to determine the percentage of compound remaining.
Plots of percentage compound remaining were used to determine the intrinsic clearance in the hepatocyte incubations using the following equations:
Scaled Clint [L/h/kg]=Clint[μL/min/10^6 cells]*#(10^6) cells/g liver*60*( 1/10^6) Scaled Clint unbound [L/h/kg]=Clint [L/h/kg]/Fu,inc where: fu,inc equals hepatocyte binding, derived from microsomal binding (fu,mic) by following equation: […]

SMILES | IC50 (human IRAK-4) | Human Hepatocyte stability (Perc. remaining at 90 min) (Human Hepatocyte)
COc1c(NC(=O)c2cccn(C3CC3)c2=O)cc2cc(CCC(C)(C)O)nn2c1C [Compound 13, 1-cyclopropyl-N-[2-(3-hydroxy-3-methyl-butyl)-6-methoxy-7-methyl-pyrazolo[1,5-a]pyridin-5-yl]-2-oxo-pyridine-3-carboxamide] | 10 to 50 nM | 98.45 Perc.
CC(C)(O)CCc1cc2cc(NC(=O)c3cccc(C(F)F)n3)c(C(N)=O)cn2n1 [Compound 20, 5-[[6-(difluoromethyl)pyridine-2-carbonyl]amino]-2-(3-hydroxy-3-methyl-butyl)pyrazolo[1,5-a]pyridine-6-carboxamide] | 0.1 to 5 nM | 81.65 Perc.
COc1cn2nc(CCC(C)(C)O)cc2cc1NC(=O)c1cccn(C2CC2)c1=O [Compound 1, 1-cyclopropyl-N-[2-(3-hydroxy-3-methylbutyl)-6-methoxypyrazolo[1,5-a]pyridin-5-yl]-2-oxopyridine-3-carboxamide] | 0.1 to 5 nM | 96.6 Perc.
[2H]C([2H])([2H])Oc1cn2nc(CCC(C)(C)O)cc2cc1NC(=O)c1cccn(C2CC2)c1=O [Compound 24, 1-cyclopropyl-N-[2-(3-hydroxy-3-methylbutyl)-6-(trideuteriomethoxy)pyrazolo[1,5-a]pyridin-5-yl]-2-oxopyridine-3-carboxamide] | 0.1 to 5 nM | 105 Perc.

Further lines, results first:

IC50 (human IRAK-4) | Human Hepatocyte stability (Perc. remaining at 90 min) (Human Hepatocyte) | SMILES
0.1 to 5 nM | 94.5 Perc. | CNC(=O)c1cn2nc(CCC(C)(C)O)cc2cc1NC(=O)c1cccc(C(F)(F)F)n1 [Compound 5, 2-(3-hydroxy-3-methylbutyl)-N-methyl-5-[[6-(trifluoromethyl)pyridine-2-carbonyl]amino]pyrazolo[1,5-a]pyridine-6-carboxamide]
0.1 to 5 nM | 75.95 Perc. | NC(=O)c1cn2nc(C3CCOCC3)cc2cc1NC(=O)c1cccc(C(F)F)n1 [Compound 16, 5-[[6-(difluoromethyl)pyridine-2-carbonyl]amino]-2-tetrahydropyran-4-yl-pyrazolo[1,5-a]pyridine-6-carboxamide]
0.1 to 5 nM | 22.8 Perc. | COc1cn2nc(CCC(C)(C)O)cc2cc1NC(=O)c1cccc(C(F)(F)F)n1 [Compound 3, N-[2-(3-hydroxy-3-methylbutyl)-6-methoxypyrazolo[1,5-a]pyridin-5-yl]-6-(trifluoromethyl)pyridine-2-carboxamide]
